Data reported in US12568998B2, “Flavouring composition with balanced taste profile” (SYMRISE AG, priority 2021, dated 2026).
“Also recorded” adds a separate entry of the source.

What was measured:
[1] = Sensory profiling of ice tea preparation, HT/HC ratio 1:3.33 (Example 2); conditions: tea base, 4 wt.-% HFCS, 0.10 wt.-% citric acid, HT 3 ppm and/or HC 10 ppm; for Acidity / Balance / Bitter / Complexity / Fruity-Juicy / Long lasting / Off-Notes / Onset Sweetness / Overall Sweetness / Syrupy / Tea: line scale (10 cm)
Experimental: In order to further validate the insights derived from Example 1, the interaction and main effects of HT and HC are to be shown in a setup in which a drinkable preparation with a tea base, 0.05 wt.-% lemon flavor, 4 wt.-% high fructose corn syrup, 0.1 wt.-% citric acid and 0.03 wt.-% trisodium citrate was prepared. That preparation was divided into four samples by varying the dosage of HC and HT resulting in one sample containing no HC and no HT (control), containing 10 ppm HC and no HT (HC main effect), containing no HC and 3 ppm HT (HT main effect) and, respectively, containing 10 ppm HC and 3 ppm HT (HT×HC interaction effect). […] The final preparations were profiled by an expert panel consisting of ten educated panelists (two measurements). Different sensorial attributes (ice tea language with focus on sweetness) were assessed and scored on an unstructured line scale (10 cm) for its perceived intensity. The results of the testing are shown below in Table 2 as well as in FIG. 1 and FIG. 2.

[2] = Sensory descriptive analysis of ice tea prototypes, sweetness factor (Example 1); conditions: HC 10 ppm and/or HT 3 ppm
[3] = Sensory profiling of ice tea preparation, HT/HC ratios 1:1 and 1:6 (Example 4); conditions: tea base, 5 wt.-% HFCS, 0.18 wt.-% citric acid, line scale (10 cm)
Experimental: In order to further validate the insights derived from Example 1 and 2, the interaction and main effects of HT and HC are to be shown in a setup in which a drinkable preparation with a tea base, 0.05 wt.-% lemon flavor, 5 wt.-% high fructose corn syrup, 0.18 wt.-% citric acid and 0.03 wt.-% trisodium citrate was prepared. That preparation was divided into four samples by varying the dosage of HT and HC resulting in one sample containing no HT and no HC (control), containing 5 or 3 ppm HT and no HC (HT main effect), containing no HT and 5 or 18 ppm HC (HC main effect) and, respectively, containing 5 or 3 ppm HT and or 18 ppm HC (HT×HC interaction effect). […] The final preparations were profiled by an expert panel consisting of seven educated panelists (two measurements). Different sensorial attributes (ice tea language with focus on sweetness) were assessed and scored on an unstructured line scale (10 cm) for its perceived intensity. The results of the testing are shown below in Table 4 and 5 as well as in FIG. 4 to FIG. 7.

[4] = Dosing tests with an excess of hesperetin, sensory ranking (Example 3)
Experimental: A drinkable preparation with 7 wt.-% sucrose and 0.15 wt.-% citric acid was prepared. This preparation was used as a base composition for dosing tests with different dosing regimens of hesperetin dihydrochalcone and hesperetin. The different samples were evaluated by an expert panel consisting of five educated panelists and ranked on a scale from 0 to 9. The results of the testing are shown below in Table 3 as well as in FIG. 3.

[5] = J. Chem. Senses 1979, 4(1), 35-47; cited from earlier work
[6] = Acesulfame K Ice tea Base, 60 ppm
[7] = HFCS Ice tea Base, 2 wt. % High Fructose corn sirup
[8] = Invert Sugar Syrup Ice tea Base, 2 wt. % invert sugar syrup
[9] = Reb A Ice tea Base, 60 ppm rebaudioside A
[10] = Reb A/Reb D Ice tea Base, 60 ppm rebaudioside A/60 ppm rebaudioside D
[11] = Reb A/Reb M Ice tea Base, 60 ppm rebaudioside A/45 ppm rebaudioside M
[12] = Reb M/Reb D Ice tea Base, 45 ppm rebaudioside M/60 ppm rebaudioside D
[13] = Sucralose Ice tea Base, 100 ppm sucralose
[14] = Sugar Free Ice tea Base, no added sugar/sweetener

COc1ccc(CCC(=O)c2c(O)cc(O)cc2O)cc1O [HC, hesperetin dihydrochalcone]
Remarks [1]: lingering,; also recorded: sweetener
Acidity [1]: 3.22
Balance [1]: 3.50
Bitter [1]: 2.58
Complexity [1]: 3.62
Fruity-Juicy [1]: 3.88
Long lasting [1]: 3.90
Off-Notes [1]: 2.25
Onset Sweetness [1]: 4.39
Overall Sweetness [1]: 4.80
Syrupy [1]: 3.70
Tea [1]: 4.08
ANOVA (sweetness factor) [2, 6]: −0.1
ANOVA (sweetness factor) [2, 7]: −0.9
ANOVA (sweetness factor) [2, 8]: −1
ANOVA (sweetness factor) [2, 9]: −0.5
ANOVA (sweetness factor) [2, 10]: −0.1
ANOVA (sweetness factor) [2, 11]: 0
ANOVA (sweetness factor) [2, 12]: −0.3
ANOVA (sweetness factor) [2, 13]: −0.8
ANOVA (sweetness factor) [2, 14]: −1.3
Acidity ([3]; HT 3 ppm and/or HC 18 ppm): 3.12
Balance ([3]; HT 3 ppm and/or HC 18 ppm): 3.66
Bitter ([3]; HT 3 ppm and/or HC 18 ppm): 1.94
Complexity ([3]; HT 3 ppm and/or HC 18 ppm): 4.58
Fruity-Juicy ([3]; HT 3 ppm and/or HC 18 ppm): 4.27
Long lasting ([3]; HT 3 ppm and/or HC 18 ppm): 4.20
Off-Notes ([3]; HT 3 ppm and/or HC 18 ppm): 1.01
Onset Sweetness ([3]; HT 3 ppm and/or HC 18 ppm): 4.99
Overall Sweetness ([3]; HT 3 ppm and/or HC 18 ppm): 5.60
Syrupy ([3]; HT 3 ppm and/or HC 18 ppm): 4.32
Tea ([3]; HT 3 ppm and/or HC 18 ppm): 4.01
Acidity ([3]; HT 5 ppm and/or HC 5 ppm): 3.46
Balance ([3]; HT 5 ppm and/or HC 5 ppm): 3.68
Bitter ([3]; HT 5 ppm and/or HC 5 ppm): 1.93
Complexity ([3]; HT 5 ppm and/or HC 5 ppm): 3.90
Fruity-Juicy ([3]; HT 5 ppm and/or HC 5 ppm): 4.68
Long lasting ([3]; HT 5 ppm and/or HC 5 ppm): 3.11
Off-Notes ([3]; HT 5 ppm and/or HC 5 ppm): 0.70
Onset Sweetness ([3]; HT 5 ppm and/or HC 5 ppm): 4.19
Overall Sweetness ([3]; HT 5 ppm and/or HC 5 ppm): 4.46
Syrupy ([3]; HT 5 ppm and/or HC 5 ppm): 3.96
Tea ([3]; HT 5 ppm and/or HC 5 ppm): 4.11

COc1ccc([C@@H]2CC(=O)c3c(O)cc(O)cc3O2)cc1O [HT, hesperetin]
Acidity [1]: 3.71
Balance [1]: 3.20
Bitter [1]: 2.93
Complexity [1]: 3.06
Fruity-Juicy [1]: 3.60
Long lasting [1]: 2.32
Off-Notes [1]: 1.85
Onset Sweetness [1]: 3.14
Overall Sweetness [1]: 3.39
Syrupy [1]: 2.67
Tea [1]: 4.30
hesperetin concentration exhibiting off-tastes in the preparation [4]: more than 30 ppm
ANOVA (sweetness factor) [2, 6]: −2.4
ANOVA (sweetness factor) [2, 7]: −3.2
ANOVA (sweetness factor) [2, 8]: −3.3
ANOVA (sweetness factor) [2, 9]: −2.8
ANOVA (sweetness factor) [2, 10]: −2.4
ANOVA (sweetness factor) [2, 11]: −2.3
ANOVA (sweetness factor) [2, 12]: −2.6
ANOVA (sweetness factor) [2, 13]: −3.1
ANOVA (sweetness factor) [2, 14]: −3.6
Acidity ([3]; HT 3 ppm and/or HC 18 ppm): 4.11
Balance ([3]; HT 3 ppm and/or HC 18 ppm): 3.24
Bitter ([3]; HT 3 ppm and/or HC 18 ppm): 2.21
Complexity ([3]; HT 3 ppm and/or HC 18 ppm): 3.99
Fruity-Juicy ([3]; HT 3 ppm and/or HC 18 ppm): 4.19
Long lasting ([3]; HT 3 ppm and/or HC 18 ppm): 2.61
Off-Notes ([3]; HT 3 ppm and/or HC 18 ppm): 0.77
Onset Sweetness ([3]; HT 3 ppm and/or HC 18 ppm): 4.22
Overall Sweetness ([3]; HT 3 ppm and/or HC 18 ppm): 4.53
Syrupy ([3]; HT 3 ppm and/or HC 18 ppm): 3.72
Tea ([3]; HT 3 ppm and/or HC 18 ppm): 4.39
Acidity ([3]; HT 5 ppm and/or HC 5 ppm): 4.06
Balance ([3]; HT 5 ppm and/or HC 5 ppm): 3.94
Bitter ([3]; HT 5 ppm and/or HC 5 ppm): 1.87
Complexity ([3]; HT 5 ppm and/or HC 5 ppm): 3.87
Fruity-Juicy ([3]; HT 5 ppm and/or HC 5 ppm): 4.32
Long lasting ([3]; HT 5 ppm and/or HC 5 ppm): 2.79
Off-Notes ([3]; HT 5 ppm and/or HC 5 ppm): 0.58
Onset Sweetness ([3]; HT 5 ppm and/or HC 5 ppm): 3.89
Overall Sweetness ([3]; HT 5 ppm and/or HC 5 ppm): 4.07
Syrupy ([3]; HT 5 ppm and/or HC 5 ppm): 3.59
Tea ([3]; HT 5 ppm and/or HC 5 ppm): 4.16

COc1ccc(CCC(=O)c2ccccc2O)cc1O [dihydrochalcone (1)]
taste [5]: intensively sweet tasting

COc1ccc(CCC(=O)c2c(O)cccc2O)cc1O [dihydrochalcone (2)]
taste [5]: tasteless
